Results reported in patent publication US20240122885A1, “Endometriosis-Related Methods and Compositions” (The Regents of the University of California, priority 2021, published 2024).

Test system: rat model of endometriosis
Experiment: behavioral assessment of vaginal nociception (escape response) in rat model of endometriosis
Assay type: in vivo
Conditions: 30 mg/kg/day p.o.; for Post-Treatment period (PT) median escape response: four weeks of treatment, proestrus
From the text: Baseline vaginal nociception was first assessed in rats. Then, endometriosis was induced when rats were four months of age by suturing uterine fragments within the peritoneal cavity to generate ectopic endometrium (lesions). […] In this model, four (2 mm×2 mm) pieces of uterine horn are auto transplanted onto cascading mesenteric arteries within the pelvic cavity of rats that are hormonally and immunologically intact. The present model avoids ovariectomy followed by estradiol supplementation that is common in most mouse models which eliminates the natural estradiol variations within the estrous cycle and the ability to assess drug treatment effects on fertility.
Behavioral assessment of vaginal nociception: Volumes of water (0.01, 0.15, 0.30, 0.40, 0.55, 0.70, 0.80, and 0.90 mL) were delivered via a vaginal balloon to the rat's vaginal canal. When the previously trained rat detects this stimulus as noxious, she will poke her head into a tube to break an infrared (IR) beam. This beam break terminates the stimulus (balloon deflates). During each testing session, eight different distention volumes were delivered randomly three times each ˜60 seconds apart. The maximum latency of 15 seconds is considered to be no response. The experimenter was blinded to the volumes being delivered.
Data analyses of behavioral results: Percent escape responses as a function of distention volume were measured in each session. For each rat, the escape response percentages as a function of distention volume from all sessions for each testing period were determined. The median escape response percentage and interquartile range (IQR) for all rats from each testing period was determined.
Statistical analyses were performed using Mann Whitney U test, and p-values were corrected using the Bonferroni correction method.

## CC(C(=O)O)c1cccc(Oc2ccccc2)c1 (stereo not shown) [fenoprofen]
Any volume of water delivered, Mann Whitney U test, Bonferroni-corrected threshold 0.05
  escape responses between the baseline period and the post-treatment period: No statistically significant difference
Volume 0.01 mL
  Post-Treatment period (PT) median escape response: 0%
Volume 0.15 mL
  Post-Treatment period (PT) median escape response: 0%
Volume 0.3 mL
  Post-Treatment period (PT) median escape response: 0%
Volume 0.4 mL
  Post-Treatment period (PT) median escape response: 16.65%
Volume 0.55 mL
  Post-Treatment period (PT) median escape response: 33.3%
Volume 0.7 mL
  Post-Treatment period (PT) median escape response: 66.6%
Volume 0.8 mL
  Post-Treatment period (PT) median escape response: 100%
Volume 0.9 mL
  Post-Treatment period (PT) median escape response: 100%
Volumes of 0.15, 0.3, 0.4, 0.55, 0.7 and 0.8 mL, Mann Whitney U test, Bonferroni-corrected threshold 0.05
  escape responses during the post-treatment period compared to the post-endo surgery period: significantly decreased
